Test results reported in US12329753B2, “Phosphodiesterase inhibitor treatment” (Cyrano Therapeutics, Inc., priority 2008, dated 2025).
Marks after values point to notes of the source that are not given here.

How the values were obtained:
[1] = test system: patients with hyposmia; assay: Smell function tests (DT, RT, ME), forced-choice three-stimuli stepwise-staircase technique, open trial of oral theophylline; format: in vivo, human; settings: for detection threshold (DT), amyl acetate / detection threshold (DT), nitrobenzene / detection threshold (DT), pyridine / detection threshold (DT), thiophene / magnitude estimation (ME), amyl acetate / magnitude estimation (ME), nitrobenzene / magnitude estimation (ME), pyridine / magnitude estimation (ME), thiophene / recognition threshold (RT), amyl acetate / recognition threshold (RT), nitrobenzene / recognition threshold (RT), pyridine / recognition threshold (RT), thiophene: mean ± SEM
Text: Patients initially reported their sensory dysfunction as either loss of taste (i.e., flavor) and/or smell function. This subjective response was documented by objective psychophysical measurements of olfactory function administered to each patient by use of a forced-choice, three-stimuli, stepwise-staircase technique in a fixed, controlled design (1, 53). Efficacy of this technique and results of testing were previously documented in a double-blind clinical trial (53). Four odors were used; they were pyridine (dead-fish odor), nitrobenzene (bitter-almond odor), thiophene (petroleum-like odor) and amyl acetate (banana-oil odor). Detection thresholds (DT), recognition thresholds (RT) and magnitude estimation (ME) values for each odor were determined as previously described (1, 53). Thresholds were converted into bottle units (BU) as previously described (53) and results reported as M±SEM of correct responses for each odor in each treatment group; ME was reported in % and results calculated to obtain M±SEM for each treatment group for all correct responses using data for the four highest odor concentrations presented (from 10^−2M—an absolute odor concentration).
After determination of hyposmia, patients were treated in an open label, fixed design, controlled open trial. Patients were given an oral extended release theophylline in divided daily doses taken in the middle of breakfast and lunch. All patients were initially given 200 mg of theophylline; changes in this dose were made based upon subjective responses to therapy. If at a subsequent return visit, patients reported ≥5% subjective improvement in overall smell function, they continued on this same dose of theophylline and were reevaluated after four to six months of continued treatment. Results from any subsequent return from these improved patients were not included in any subsequent data report. All subsequent comparisons between treated and untreated patients were made only between those patients continuing in the study compared to their own measurements obtained in the untreated state. If patients reported <5% subjective improvement, their theophylline dose was increased by 200 mg daily and they were scheduled for retesting at the study site after two to four months at this new dosage. For patients that reported <5% improvement, this sequence continued until patients reached 800 mg of theophylline, at which time the study was considered completed.
Patients returned for reevaluation after two to four months of treatment. Measurements of blood serum theophylline were measured by a fluorescence polarization assay (Abbott, Chicago, IL). At this time, subjective changes in smell function were measured independently (compared to patient's memory of previous normal smell function monitored by use of the patients' daily measurements) using the scale from −100-0-+100 previously described (vs). After independently recording their subjective responses, smell function was measured for all four odors with DT, RT, ME and H determined without recourse to prior measurements.
Since data for all measurements from each patient group (local or distant) on each dose level were combined mean and SEM for each measurement (DT, RT, ME, H) of smell function for each treatment group were calculated on this basis. Differences in measurements between before treatment and each treatment level were calculated and significance of differences estimated using Student t tests (values p<0.05 considered significant). Some patient responses were also analyzed by use of non-parametric statistics (sign test) and the Spearman rank correlation technique; […] was considered significant related to smell loss type and treatment response. Since each patient served as his/her own control with respect to before and after treatment, paired t tests were also calculated; […] were considered significant. These values were not included in the results presented.

[2] = test system: total PDE activity; settings: human lung extracts; therapeutic concentrations; cited from earlier work
[3] = oral 200 mg daily, 2-6 months, all patients (199)
[4] = oral 200 mg, Type I hyposmia (57)
[5] = oral 400 mg daily, 2-6 months, all patients (120)
[6] = oral 400 mg, Type I hyposmia (33)
[7] = oral 600 mg daily, 2-12 months, all patients (160)
[8] = oral 600 mg, Type I hyposmia (51)
[9] = oral 800 mg daily, 2-12 months, all patients (28)
[10] = oral 800 mg, Type I hyposmia (12)

## Cn1c(=O)c2[nH]cnc2n(C)c1=O [theophylline]
[1]; [3]
  detection threshold (DT), amyl acetate: 7.9 ± 0.2^c BU
  detection threshold (DT), nitrobenzene: 7.8 ± 0.2^d BU
  detection threshold (DT), pyridine: 7.6 ± 0.2^a BU
  detection threshold (DT), thiophene: 7.5 ± 0.2^c BU
  magnitude estimation (ME), amyl acetate: 15 ± 2^d %
  magnitude estimation (ME), nitrobenzene: 17 ± 2^ %
  magnitude estimation (ME), pyridine: 28 ± 2^a %
  magnitude estimation (ME), thiophene: 21 ± 2^ %
  recognition threshold (RT), amyl acetate: 9.9 ± 0.2^c BU
  recognition threshold (RT), nitrobenzene: 9.5 ± 0.2^a BU
  recognition threshold (RT), pyridine: 9.0 ± 0.2^a BU
  recognition threshold (RT), thiophene: 9.1 ± 0.2^c BU
[1]; [4]
  detection threshold (DT), amyl acetate: 10.5 ± 0.3^d BU
  detection threshold (DT), nitrobenzene: 10.3 ± 0.3^a BU
  detection threshold (DT), pyridine: 9.5 ± 0.2 BU
  detection threshold (DT), thiophene: 10.1 ± 0.3^d BU
  recognition threshold (RT), amyl acetate: 11.3 ± 0.2^ BU
  recognition threshold (RT), nitrobenzene: 11.2 ± 0.2^d BU
  recognition threshold (RT), thiophene: 11.4 ± 0.2^ BU
[1]; oral 400 mg
  total mean increase in ME, all odors: 10.4%
[1]; [5]
  detection threshold (DT), amyl acetate: 7.1 ± 0.3^b BET
  detection threshold (DT), nitrobenzene: 7.2 ± 0.3^c BET
  detection threshold (DT), pyridine: 7.0 ± 0.3^c BET
  detection threshold (DT), thiophene: 6.8 ± 0.4^c BET
  magnitude estimation (ME), amyl acetate: 18 ± 2^c %
  magnitude estimation (ME), nitrobenzene: 23 ± 2^a %
  magnitude estimation (ME), thiophene: 26 ± 2^c %
  recognition threshold (RT), nitrobenzene: 8.9 ± 0.3^b BU
  recognition threshold (RT), pyridine: 8.5 ± 0.3^a BU
  recognition threshold (RT), thiophene: 8.4 ± 0.3^a BU
[1]; [6]
  detection threshold (DT), amyl acetate: 10.1 ± 0.5^a BU
  detection threshold (DT), pyridine: 8.8 ± 0.5 BU
  recognition threshold (RT), amyl acetate: 11.2 ± 0.3^ BU
  recognition threshold (RT), nitrobenzene: 10.9 ± 0.4^e BU
  recognition threshold (RT), thiophene: 10.8 ± 0.4^d BU
[1]; [7]
  detection threshold (DT), amyl acetate: 7.8 ± 0.3^a BET
  detection threshold (DT), nitrobenzene: 7.8 ± 0.3^a BET
  detection threshold (DT), pyridine: 7.4 ± 0.2^c BET
  detection threshold (DT), thiophene: 7.1 ± 0.3^a BET
  magnitude estimation (ME), amyl acetate: 15 ± 2^c %
  magnitude estimation (ME), nitrobenzene: 18 ± 2^d %
  magnitude estimation (ME), pyridine: 26 ± 2^d %
  magnitude estimation (ME), thiophene: 21 ± 2^d %
  recognition threshold (RT), amyl acetate: 9.6 ± 0.2^a BU
  recognition threshold (RT), nitrobenzene: 9.1 ± 0.2^c BU
  recognition threshold (RT), pyridine: 9.4 ± 0.2^c BU
  recognition threshold (RT), thiophene: 9.0 ± 0.3^c BU
[1]; [8]
  detection threshold (DT), amyl acetate: 10.1 ± 0.3^a BU
  recognition threshold (RT), amyl acetate: 11.1 ± 0.2^c BU
  recognition threshold (RT), nitrobenzene: 10.8 ± 0.3^e BU
  recognition threshold (RT), pyridine: 10.9 ± 0.3 BU
  recognition threshold (RT), thiophene: 10.9 ± 0.3^b BU
[1]; [9]
  detection threshold (DT), amyl acetate: 7.2 ± 0.8 BU
  detection threshold (DT), nitrobenzene: 7.0 ± 0.8^d BU
  detection threshold (DT), thiophene: 7.2 ± 0.7 BU
  magnitude estimation (ME), amyl acetate: 24 ± 2^a %
  magnitude estimation (ME), nitrobenzene: 25 ± 6 ^ %
  magnitude estimation (ME), pyridine: 29 ± 5%
  magnitude estimation (ME), thiophene: 20 ± 4%
  recognition threshold (RT), amyl acetate: 9.0 ± 0.5^b BU
  recognition threshold (RT), nitrobenzene: 7.8 ± 0.8^d BU
  recognition threshold (RT), pyridine: 8.5 ± 0.6^c BU
  recognition threshold (RT), thiophene: 9.6 ± 0.6 BU
[1]; [10]
  detection threshold (DT), amyl acetate: 10.6 ± 0.5^ BU
  detection threshold (DT), nitrobenzene: 10.1 ± 0.8^ BU
  detection threshold (DT), pyridine: 9.6 ± 0.8 BU
  recognition threshold (RT), amyl acetate: 11.6 ± 0.4^ BU
  recognition threshold (RT), nitrobenzene: 11.3 ± 0.7^ BU
  recognition threshold (RT), pyridine: 10.3 ± 1.0 BU
  recognition threshold (RT), thiophene: 11.6 ± 0.2^ BU
[2]
  inhibition of total PDE activity: 5 to 10%
